Measured values reported in patent US8884061B2, “Compositions and methods of use of electron transport system inhibitors” (priority 2006, dated 2014).
Read-outs that look alike come from different tables or passages of the source.

How the values were obtained:
[1] = tested on: M. tuberculosis Kurono; assay: MIC, agar (7H11) dilution method; assay type: cell-based; conditions: M. tuberculosis Kurono, agar (7H11) dilution
[2] = tested on: S. epidermidis ATCC 12228; assay: MIC, other bacteria (Table 3); assay type: cell-based
[3] = tested on: MRSA 2441-05262; assay: MIC, other bacteria (Table 3); assay type: cell-based, S. aureus; conditions: inoculum size 10^6 CFU/ml
[4] = tested on: MRSE 2442-05030; assay: MIC, other bacteria (Table 3); assay type: cell-based, S. epidermidis; conditions: inoculum size 10^6 CFU/ml
[5] = tested on: P. mirabilis ATCC 4630; assay: MIC, other bacteria (Table 3); assay type: cell-based
[6] = tested on: MRSE 2442-05053; assay: MIC, other bacteria (Table 3); assay type: cell-based, S. epidermidis; conditions: inoculum size 10^6 CFU/ml
[7] = tested on: E. faecalis NCTC 12201 (VRE); assay: MIC, other bacteria (Table 3); assay type: cell-based; conditions: high level VCM-resistant, Van A, inoculum size 10^6 CFU/ml
[8] = tested on: M. bovis BCG Tokyo; assay: microbe, parasite or virus in culture; assay type: cell-based
[9] = tested on: MRSE 2442-05060; assay: MIC, other bacteria (Table 3); assay type: cell-based, S. epidermidis; conditions: inoculum size 10^6 CFU/ml
[10] = tested on: M. tuberculosis H37Rv; assay: MIC, agar (7H11) dilution method; assay type: cell-based; conditions: for MIC: Mycobacterium tuberculosis, H37RV
[11] = tested on: VRSA 2441-T0044; assay: MIC, other bacteria (Table 3); assay type: cell-based, S. aureus
[12] = tested on: E. faecium ATCC 49224; assay: MIC, other bacteria (Table 3); assay type: cell-based; conditions: E. faecium ATCC 49224, GM-resistant, inoculum size 10^6 CFU/ml
[13] = tested on: VRSA 2441-T0041; assay: MIC, other bacteria (Table 3); assay type: cell-based, S. aureus; conditions: VRSA 2441-T0041, low level VCM-resistant, inoculum size 10^6 CFU/ml
[14] = tested on: MRSE 2442-05047; assay: MIC, other bacteria (Table 3); assay type: cell-based, S. epidermidis; conditions: inoculum size 10^6 CFU/ml
[15] = tested on: M. aurum; assay: MIC, agar (7H11) dilution method; assay type: cell-based
[16] = tested on: MRSA 2441-05223; assay: MIC, other bacteria (Table 3); assay type: cell-based, S. aureus; conditions: inoculum size 10^6 CFU/ml
[17] = tested on: MRSE 2442-05110; assay: MIC, other bacteria (Table 3); assay type: cell-based, S. epidermidis; conditions: inoculum size 10^6 CFU/ml
[18] = tested on: M. avium Flamingo; assay: MIC, agar (7H11) dilution method; assay type: cell-based
[19] = tested on: MRSA 2441-05112; assay: MIC, other bacteria (Table 3); assay type: cell-based, S. aureus; conditions: inoculum size 10^6 CFU/ml
[20] = tested on: M. fortuitum NIHJ1615; assay: MIC, agar (7H11) dilution method; assay type: cell-based
[21] = tested on: S. marsascens ATCC 14756; assay: MIC, other bacteria (Table 3); assay type: cell-based; conditions: inoculum size 10^6 CFU/ml
[22] = tested on: M. smegmatis Takeo; assay: MIC, agar (7H11) dilution method; assay type: cell-based
[23] = tested on: S. aureus ATCC 29213; assay: MIC, other bacteria (Table 3); assay type: cell-based
[24] = tested on: K. pneumoniae ATCC 27736; assay: MIC, other bacteria (Table 3); assay type: cell-based
[25] = tested on: M. kansasii NIHJ1619; assay: MIC, agar (7H11) dilution method; assay type: cell-based
[26] = tested on: E. faecalis ATCC 29212; assay: MIC, other bacteria (Table 3); assay type: cell-based
[27] = tested on: MRSA 2441-05129; assay: MIC, other bacteria (Table 3); assay type: cell-based, S. aureus; conditions: inoculum size 10^6 CFU/ml
[28] = tested on: E. faecalis ATCC 51299 (VRE); assay: MIC, other bacteria (Table 3); assay type: cell-based; conditions: low level VCM-resistant, Van B, inoculum size 10^6 CFU/ml
[29] = tested on: MRSA 2441-05254; assay: MIC, other bacteria (Table 3); assay type: cell-based, S. aureus; conditions: inoculum size 10^6 CFU/ml
[30] = tested on: MRSE 2442-05118; assay: MIC, other bacteria (Table 3); assay type: cell-based, S. epidermidis; conditions: inoculum size 10^6 CFU/ml
[31] = tested on: E. coli ATCC 25922; assay: MIC, other bacteria (Table 3); assay type: cell-based
[32] = tested on: M. intracellularae ATCC 15984; assay: MIC, agar (7H11) dilution method; assay type: cell-based
[33] = tested on: S. aureus ATCC 43300 (MRSA); assay: MIC, other bacteria (Table 3); assay type: cell-based; conditions: inoculum size 10^6 CFU/ml
[34] = tested on: P. aeruginosa ATCC 27853; assay: MIC, other bacteria (Table 3); assay type: cell-based
[35] = tested on: MRSA 2441-05104; assay: MIC, other bacteria (Table 3); assay type: cell-based, S. aureus; conditions: inoculum size 10^6 CFU/ml
[36] = tested on: E. faecium NCTC 12203 (VRE); assay: MIC, other bacteria (Table 3); assay type: cell-based; conditions: high level VCM-resistant, Van A, inoculum size 10^6 CFU/ml
[37] = Staphylococcus aureus, read-out: MIC
[38] = Staphylococcus epidermidis, read-out: MIC
[39] = Enterococcus faecalis, read-out: MIC

C=CCN(C)CCCCCCCCOc1ccc(C(O)c2ccc(Cl)cc2)c(Cl)c1 (centres unmarked) [Cpd #21, (4-(8-(allyl(methyl)amino)octyloxy)-2-chlorophenyl)(4-chlorophenyl)methanol]
100 µg/mL: MIC [3, 37] | MIC [7, 39] | MIC ([23]; Staphylococcus aureus, ATCC29213, inoculum size 10^6 CFU/ml, read-out: MIC) | MIC ([26]; Enterococcus faecalis, ATCC29212, inoculum size 10^6 CFU/ml, read-out: MIC) | MIC [33, 37]
50 µg/mL: MIC ([2]; Staphylococcus epidermidis, ATCC12228, inoculum size 10^6 CFU/ml, read-out: MIC) | MIC [4, 38] | MIC [6, 38] | MIC [9, 38] | MIC ([12]; Enterococcus faecium, ATCC49224, read-out: MIC) | MIC [14, 38] | MIC [17, 38] | MIC [30, 38] | MIC [35, 37] | MIC ([36]; Enterococcus faecium, read-out: MIC)
25 µg/mL: MIC ([1]; Mycobacterium tuberculosis, read-out: Minimum inhibitory concentrations (MIC)) | MIC ([8]; Mycobacterium tuberculosis variant bovis BCG, BCG, read-out: Minimum inhibitory concentrations (MIC)) | MIC ([10]; read-out: Minimum inhibitory concentrations (MIC), M. tuberculosis H37Rv, table line r7 (1st of 5 so labelled)) | MIC ([10]; read-out: Minimum inhibitory concentrations (MIC), M. tuberculosis H37Rv, table line r8 (2nd of 5 so labelled)) | MIC ([10]; read-out: Minimum inhibitory concentrations (MIC), M. tuberculosis H37Rv, table line r10 (4th of 5 so labelled)) | MIC ([10]; read-out: Minimum inhibitory concentrations (MIC), M. tuberculosis H37Rv, table line r11 (5th of 5 so labelled))
12.5 µg/mL: MIC ([10]; M. tuberculosis H37Rv, table line r9 (3rd of 5 so labelled), read-out: Minimum inhibitory concentrations (MIC))
> 25 µg/mL: MIC ([15]; Mycolicibacterium aurum, read-out: Minimum inhibitory concentrations (MIC)) | MIC ([18]; Mycobacterium avium, read-out: Minimum inhibitory concentrations (MIC)) | MIC ([20]; Mycolicibacterium fortuitum, read-out: Minimum inhibitory concentrations (MIC)) | MIC ([22]; Mycolicibacterium smegmatis, read-out: Minimum inhibitory concentrations (MIC)) | MIC ([25]; Mycobacterium kansasii, read-out: Minimum inhibitory concentrations (MIC)) | MIC ([32]; read-out: Minimum inhibitory concentrations (MIC))
> 100 µg/mL: MIC ([5]; Proteus mirabilis, ATCC4630, inoculum size 10^6 CFU/ml, read-out: MIC) | MIC ([11]; Staphylococcus aureus, VRSA) | MIC [13, 37] | MIC [16, 37] | MIC [19, 37] | MIC ([21]; read-out: MIC) | MIC ([24]; Klebsiella pneumoniae, ATCC27736, inoculum size 10^6 CFU/ml, read-out: MIC) | MIC [27, 37] | MIC [28, 39] | MIC [29, 37] | MIC ([31]; Escherichia coli, ATCC25922, inoculum size 10^6 CFU/ml, read-out: MIC) | MIC ([34]; Pseudomonas aeruginosa, ATCC27853, inoculum size 10^6 CFU/ml, read-out: MIC)

C=CCN(C)CCCCCCCCOc1ccc(C(=O)c2ccc(Cl)cc2)c(Cl)c1 [Cpd #20]
6.25 µg/mL: Minimum inhibitory concentrations (MIC) [1] | Minimum inhibitory concentrations (MIC) ([8]; M. bovis BCG Tokyo, agar (7H11) dilution) | Minimum inhibitory concentrations (MIC) ([10]; M. tuberculosis H37Rv, table line r7 (1st of 5 so labelled)) | Minimum inhibitory concentrations (MIC) ([10]; M. tuberculosis H37Rv, table line r8 (2nd of 5 so labelled)) | Minimum inhibitory concentrations (MIC) ([10]; M. tuberculosis H37Rv, table line r9 (3rd of 5 so labelled)) | Minimum inhibitory concentrations (MIC) ([10]; M. tuberculosis H37Rv, table line r10 (4th of 5 so labelled)) | Minimum inhibitory concentrations (MIC) ([10]; M. tuberculosis H37Rv, table line r11 (5th of 5 so labelled))
25 µg/mL: MIC ([2]; inoculum size 10^6 CFU/ml) | MIC [3] | MIC [16] | MIC [19] | Minimum inhibitory concentrations (MIC) [22] | MIC ([23]; inoculum size 10^6 CFU/ml) | MIC [27] | MIC [28] | MIC [29] | MIC [33] | MIC [35]
>100 µg/mL: MIC ([5]; inoculum size 10^6 CFU/ml) | MIC [21] | MIC ([24]; inoculum size 10^6 CFU/ml) | MIC ([31]; inoculum size 10^6 CFU/ml) | MIC ([34]; inoculum size 10^6 CFU/ml)
>25 µg/mL: Minimum inhibitory concentrations (MIC) [20]
12.5 µg/mL: MIC [4] | MIC [6] | MIC [7] | MIC [9] | MIC [12] | MIC [14] | Minimum inhibitory concentrations (MIC) [15] | MIC [17] | Minimum inhibitory concentrations (MIC) [18] | Minimum inhibitory concentrations (MIC) [25] | MIC ([26]; inoculum size 10^6 CFU/ml) | MIC [30] | Minimum inhibitory concentrations (MIC) [32] | MIC [36]
50 µg/mL: MIC ([11]; VRSA 2441-T0044, low level VCM-resistant, inoculum size 10^6 CFU/ml) | MIC [13]
